# Test results from patent US12071453B2, “Neuroactive steroids, compositions, and uses thereof” (Sage Therapeutics, Inc., priority 2013, dated 2024).
# Legend:
# [1] = target: [35S]-TBPS binding in rat brain cortical membranes; assay: Steroid inhibition of [35S]-TBPS binding, rat brain cortical membranes; settings: 3 nM [35S]-TBPS, in the presence of 5 μM GABA, read-out: 35S-TBPS Radioligand Displacement (IC50)
# How it was run: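 Washed P2 cortical membranes from Sprague-Dawley rats were incubated 90 min at room temperature with 3 nM [35S]-TBPS, 5 μM GABA and test steroid (0.5% DMSO) in 200 mM NaCl/50 mM Na–K phosphate, pH 7.4. Nonspecific binding was defined with 2 μM unlabeled TBPS, and samples were filtered and counted. IC50 and Imax came from non-linear fits, reported as mean ± SEM.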
# [2] = target: T1, recombinant α1β2γ2 GABAA receptors (Homo sapiens, UniProt P14867+P47870); assay: Patch clamp electrophysiology (QPatch) in LTK cells stably transfected with α1β2γ2; format: cell-based; settings: 10 μM compound, 2 μM GABA (EC20), read-out: GABA (α1β2γ2) Qpatch in Ltk, % efficacy at 10 μM
# T1 construct: expressed in transfected cells; host or cells: LTK cells, stably transfected
# [3] = target: T2, recombinant α4β3δ GABAA receptors (Homo sapiens, UniProt P28472+P48169); assay: Manual patch clamp electrophysiology in CHO cells transiently transfected with α4β3δ; format: cell-based; settings: 10 μM compound, 2 μM GABA (EC20), read-out: GABA (α4β3δ) Manual patch in CHO, % efficacy at 10 μM
# T2 construct: expressed in transfected cells; host or cells: CHO cells, transiently transfected (Lipofectamine)
# [4] = target: T3, GABAA receptors composed of the α1β2γ2 subunits (GABRA1/GABRB2/GABRG2) (Homo sapiens, UniProt P14867+P47870); assay: Two Electrode Voltage Clamp (TEVC), GABA receptor potentiation in Xenopus laevis oocytes, α1β2γ2; format: cell-based; settings: 10 μM compound, 10 μM GABA, read-out: GABA (α1β2γ2) % efficacy at 10 μM
# T3 construct: expressed in transfected cells; host or cells: Xenopus laevis oocytes, injected (ratio 1:1:1)
# T3 sequence (P14867 28-456): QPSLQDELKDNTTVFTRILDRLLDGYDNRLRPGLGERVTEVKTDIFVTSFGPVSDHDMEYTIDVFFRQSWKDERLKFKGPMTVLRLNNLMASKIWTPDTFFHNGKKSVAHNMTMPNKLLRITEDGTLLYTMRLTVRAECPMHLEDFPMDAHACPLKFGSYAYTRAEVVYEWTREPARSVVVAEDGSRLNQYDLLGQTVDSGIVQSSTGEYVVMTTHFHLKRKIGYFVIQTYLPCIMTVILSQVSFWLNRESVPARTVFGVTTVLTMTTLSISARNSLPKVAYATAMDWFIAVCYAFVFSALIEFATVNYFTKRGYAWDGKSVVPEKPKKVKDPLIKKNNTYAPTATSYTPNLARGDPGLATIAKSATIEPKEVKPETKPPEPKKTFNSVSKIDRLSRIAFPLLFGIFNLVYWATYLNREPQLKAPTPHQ
# T3 sequence (P47870 26-512): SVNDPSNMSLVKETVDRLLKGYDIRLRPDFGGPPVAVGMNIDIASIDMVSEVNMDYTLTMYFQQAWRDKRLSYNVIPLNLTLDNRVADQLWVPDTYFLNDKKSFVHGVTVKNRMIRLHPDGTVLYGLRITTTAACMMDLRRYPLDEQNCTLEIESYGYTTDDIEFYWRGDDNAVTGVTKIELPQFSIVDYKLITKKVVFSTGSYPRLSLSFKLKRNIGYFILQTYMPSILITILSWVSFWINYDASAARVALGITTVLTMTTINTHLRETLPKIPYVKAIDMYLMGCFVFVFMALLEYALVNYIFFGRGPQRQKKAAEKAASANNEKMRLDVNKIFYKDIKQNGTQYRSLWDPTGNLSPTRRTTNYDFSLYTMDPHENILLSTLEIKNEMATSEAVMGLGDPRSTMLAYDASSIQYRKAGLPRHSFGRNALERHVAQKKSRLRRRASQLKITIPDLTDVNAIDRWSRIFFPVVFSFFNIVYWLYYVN
# T3 sequence (P18507 40-475 partner): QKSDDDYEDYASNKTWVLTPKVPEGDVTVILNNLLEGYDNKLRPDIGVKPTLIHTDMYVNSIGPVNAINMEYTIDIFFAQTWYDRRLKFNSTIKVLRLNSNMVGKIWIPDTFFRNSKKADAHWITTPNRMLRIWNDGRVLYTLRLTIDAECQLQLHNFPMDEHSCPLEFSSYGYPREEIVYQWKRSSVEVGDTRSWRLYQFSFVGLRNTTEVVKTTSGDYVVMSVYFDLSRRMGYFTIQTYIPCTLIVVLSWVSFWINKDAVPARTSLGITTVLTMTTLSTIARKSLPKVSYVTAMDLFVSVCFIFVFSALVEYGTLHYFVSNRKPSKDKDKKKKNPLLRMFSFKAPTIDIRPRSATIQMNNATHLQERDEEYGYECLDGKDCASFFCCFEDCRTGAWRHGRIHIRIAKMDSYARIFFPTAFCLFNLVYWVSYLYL
# T1 sequence (P14867 28-456): as the sequence (P14867 28-456) above
# T1 sequence (P47870 26-512): as the sequence (P47870 26-512) above
# T1 sequence (P18507 40-475 partner): as the sequence (P18507 40-475 partner) above
# T2 sequence (P48169 36-554): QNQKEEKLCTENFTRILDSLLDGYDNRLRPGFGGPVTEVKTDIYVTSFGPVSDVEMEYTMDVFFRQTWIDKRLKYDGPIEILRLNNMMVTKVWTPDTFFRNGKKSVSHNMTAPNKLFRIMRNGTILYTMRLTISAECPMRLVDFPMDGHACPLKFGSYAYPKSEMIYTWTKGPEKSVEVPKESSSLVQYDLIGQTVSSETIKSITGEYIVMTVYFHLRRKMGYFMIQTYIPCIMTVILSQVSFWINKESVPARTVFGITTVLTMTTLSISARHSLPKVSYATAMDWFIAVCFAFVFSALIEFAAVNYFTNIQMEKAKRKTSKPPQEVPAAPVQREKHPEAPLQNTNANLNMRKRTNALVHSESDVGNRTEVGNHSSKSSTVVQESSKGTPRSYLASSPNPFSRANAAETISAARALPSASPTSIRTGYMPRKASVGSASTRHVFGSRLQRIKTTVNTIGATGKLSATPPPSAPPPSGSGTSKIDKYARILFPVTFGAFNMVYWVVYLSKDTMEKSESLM
# T2 sequence (P28472 26-473): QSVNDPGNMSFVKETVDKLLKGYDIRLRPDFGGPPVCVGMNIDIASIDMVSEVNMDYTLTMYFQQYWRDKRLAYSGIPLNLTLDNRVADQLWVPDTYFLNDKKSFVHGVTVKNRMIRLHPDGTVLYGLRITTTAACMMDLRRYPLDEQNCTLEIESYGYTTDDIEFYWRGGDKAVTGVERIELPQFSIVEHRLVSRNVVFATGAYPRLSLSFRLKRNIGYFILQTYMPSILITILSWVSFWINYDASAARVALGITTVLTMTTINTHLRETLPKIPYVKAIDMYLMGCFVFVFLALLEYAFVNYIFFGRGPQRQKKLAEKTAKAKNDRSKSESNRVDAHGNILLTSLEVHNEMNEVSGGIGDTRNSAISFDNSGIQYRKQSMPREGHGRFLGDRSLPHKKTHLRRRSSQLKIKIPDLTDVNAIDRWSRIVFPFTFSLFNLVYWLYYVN
# T2 sequence (O14764 25-452 partner): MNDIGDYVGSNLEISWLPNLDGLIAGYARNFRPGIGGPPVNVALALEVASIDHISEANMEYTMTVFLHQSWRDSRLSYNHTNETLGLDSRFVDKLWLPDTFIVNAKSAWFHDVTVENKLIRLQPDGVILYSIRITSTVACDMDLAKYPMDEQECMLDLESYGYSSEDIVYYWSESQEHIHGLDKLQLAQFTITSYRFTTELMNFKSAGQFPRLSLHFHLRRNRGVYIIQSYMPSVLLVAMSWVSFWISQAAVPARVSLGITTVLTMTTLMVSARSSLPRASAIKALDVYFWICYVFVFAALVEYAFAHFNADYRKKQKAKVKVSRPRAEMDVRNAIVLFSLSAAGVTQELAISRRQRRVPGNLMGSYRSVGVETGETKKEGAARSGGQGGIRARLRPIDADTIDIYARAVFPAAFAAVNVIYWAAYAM
structure (smiles),measurement,setting,value
COC[C@]12CC[C@@](C)(O)C[C@@H]1CC[C@H]1[C@@H]3CC[C@H](C(=O)Cn4nccn4)[C@@]3(C)CC[C@@H]12 [Compound 1],IC50,[1],10 to 50 nM
same,Emax at 10 µM,[2],100 to 500%
same,Emax at 10 µM,[3],> 500%
COC[C@]12CC[C@@](C)(O)C[C@@H]1CC[C@H]1[C@@H]3CC[C@H](C(=O)Cn4ccnn4)[C@@]3(C)CC[C@@H]12 [Compound 3],IC50,[1],> 500 nM
same,melting point,,72 to 74 °C
COC[C@]12CC[C@@](C)(O)C[C@@H]1CC[C@H]1[C@@H]3CC[C@H](C(=O)CN4CCN(C)CC4)[C@@]3(C)CC[C@@H]12 [Compound 8],IC50,[1],> 500 nM
same,melting point,,136 to 137 °C
COC[C@]12CC[C@@](C)(O)C[C@@H]1CC[C@H]1[C@@H]3CC[C@H](C(=O)Cn4cc(C#N)cn4)[C@@]3(C)CC[C@@H]12 [Compound 13],IC50,[1],50 to 100 nM
same,Emax at 10 µM,[4],1000 to 1500%
same,melting point,,141 to 142 °C
COC[C@]12CC[C@@](C)(O)C[C@@H]1CC[C@H]1[C@@H]3CC[C@H](C(=O)Cn4ncnn4)[C@@]3(C)CC[C@@H]12 [Compound 14],IC50,[1],10 to 50 nM
same,Emax at 10 µM,[2],100 to 500%
same,melting point,,72 to 75 °C
same,Emax at 10 µM,[3],> 500%
COC[C@]12CC[C@@](C)(O)C[C@@H]1CC[C@H]1[C@@H]3CC[C@H](C(=O)Cn4cnnn4)[C@@]3(C)CC[C@@H]12 [Compound 15],IC50,[1],100 to 500 nM
same,Emax at 10 µM,[2],> 500%
same,melting point,,88 to 91 °C
same,Emax at 10 µM,[3],100 to 500%
COC[C@]12CC[C@@](C)(O)C[C@@H]1CC[C@H]1[C@@H]3CC[C@H](C(=O)Cn4nnnc4C)[C@@]3(C)CC[C@@H]12 [Compound 16],IC50,[1],10 to 50 nM
same,Emax at 10 µM,[2],> 500%
same,Emax at 10 µM,[3],> 500%
COC[C@]12CC[C@@](C)(O)C[C@@H]1CC[C@H]1[C@@H]3CC[C@H](C(=O)Cn4ccc(C#N)n4)[C@@]3(C)CC[C@@H]12 [Compound 19],Emax at 10 µM,[2],100 to 500%
same,Emax at 10 µM,[3],100 to 500%
COC[C@]12CC[C@@](C)(O)C[C@H]1CC[C@H]1[C@@H]3CC[C@H](C(=O)Cn4cc(C#N)cn4)[C@@]3(C)CC[C@@H]12 [Compound 27],IC50,[1],< 10 nM
same,Emax at 10 µM,[4],1000 to 1500%
same,melting point,,176 to 178 °C
COC[C@]12CC[C@@](C)(O)C[C@H]1CC[C@H]1[C@@H]3CC[C@H](C(=O)Cn4nnnc4C)[C@@]3(C)CC[C@@H]12 [Compound 30],IC50,[1],< 10 nM
same,Emax at 10 µM,[2],100 to 500%
same,Emax at 10 µM,[3],> 500%
COC[C@]12CC[C@@](C)(O)C[C@H]1CC[C@H]1[C@@H]3CC[C@H](C(=O)Cn4cc(Cl)cn4)[C@@]3(C)CC[C@@H]12 [Compound 34],IC50,[1],< 10 nM
same,Emax at 10 µM,[4],50 to 500%
same,melting point,,163 to 165 °C
COC[C@]12CC[C@@](C)(O)C[C@@H]1CC[C@H]1[C@@H]3CC[C@H](C(=O)Cn4nc5ccc(Cl)cc5n4)[C@@]3(C)CC[C@@H]12 [Compound 35],IC50,[1],10 to 50 nM
same,Emax at 10 µM,[2],100 to 500%
same,Emax at 10 µM,[3],100 to 500%
COC[C@]12CC[C@@](C)(O)C[C@@H]1CC[C@H]1[C@@H]3CC[C@H](C(=O)Cn4nnc5ccc(Cl)cc54)[C@@]3(C)CC[C@@H]12 [Compound 36],IC50,[1],10 to 50 nM
same,Emax at 10 µM,[2],100 to 500%
same,Emax at 10 µM,[3],100 to 500%
